The source made the active and inactive calls.
Legend:
Protein RecA = molecular target: T1, Protein RecA (Mycobacterium tuberculosis, UniProt P9WHJ3); test: Fluorescence Cell-Free Homogeneous Dose Retest to Identify Inhibitors of RecA-Intein Splicing Activity. [Related pubchem assays (depositor defined):AID2097, AID2223, AID489010, AID492950]; assay type: functional
T1 sequence (P9WHJ3 whole entry): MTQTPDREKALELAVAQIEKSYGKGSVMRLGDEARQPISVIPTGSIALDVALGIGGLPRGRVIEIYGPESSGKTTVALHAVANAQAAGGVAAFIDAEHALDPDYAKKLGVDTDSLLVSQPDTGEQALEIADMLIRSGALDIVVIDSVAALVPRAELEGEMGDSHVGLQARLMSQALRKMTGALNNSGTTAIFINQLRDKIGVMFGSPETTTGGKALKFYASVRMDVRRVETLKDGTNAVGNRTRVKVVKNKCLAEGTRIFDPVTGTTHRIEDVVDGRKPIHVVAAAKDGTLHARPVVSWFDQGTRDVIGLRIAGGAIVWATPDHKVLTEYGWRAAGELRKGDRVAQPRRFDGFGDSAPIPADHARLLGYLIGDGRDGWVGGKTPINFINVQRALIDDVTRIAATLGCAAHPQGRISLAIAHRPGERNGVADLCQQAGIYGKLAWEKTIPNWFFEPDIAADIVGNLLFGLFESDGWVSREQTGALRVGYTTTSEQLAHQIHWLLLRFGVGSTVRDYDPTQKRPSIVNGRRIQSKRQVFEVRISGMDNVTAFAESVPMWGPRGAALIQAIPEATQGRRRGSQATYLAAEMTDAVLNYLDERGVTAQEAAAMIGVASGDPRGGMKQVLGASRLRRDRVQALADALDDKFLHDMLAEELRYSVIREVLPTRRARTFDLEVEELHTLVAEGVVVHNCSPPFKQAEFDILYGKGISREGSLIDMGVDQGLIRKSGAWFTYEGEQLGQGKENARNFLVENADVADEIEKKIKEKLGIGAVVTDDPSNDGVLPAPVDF

[1] = molecular target: T2, Rac GTPase-activating protein 1 (Homo sapiens, UniProt Q9H0H5); test: MgcRacGAP GTPase-activating activity inhibitors, confirmation, biochemical, ADP Hunter fluorescence, primary and confirmatory (AID 624330); assay type: functional
T2 sequence (Q9H0H5 whole entry): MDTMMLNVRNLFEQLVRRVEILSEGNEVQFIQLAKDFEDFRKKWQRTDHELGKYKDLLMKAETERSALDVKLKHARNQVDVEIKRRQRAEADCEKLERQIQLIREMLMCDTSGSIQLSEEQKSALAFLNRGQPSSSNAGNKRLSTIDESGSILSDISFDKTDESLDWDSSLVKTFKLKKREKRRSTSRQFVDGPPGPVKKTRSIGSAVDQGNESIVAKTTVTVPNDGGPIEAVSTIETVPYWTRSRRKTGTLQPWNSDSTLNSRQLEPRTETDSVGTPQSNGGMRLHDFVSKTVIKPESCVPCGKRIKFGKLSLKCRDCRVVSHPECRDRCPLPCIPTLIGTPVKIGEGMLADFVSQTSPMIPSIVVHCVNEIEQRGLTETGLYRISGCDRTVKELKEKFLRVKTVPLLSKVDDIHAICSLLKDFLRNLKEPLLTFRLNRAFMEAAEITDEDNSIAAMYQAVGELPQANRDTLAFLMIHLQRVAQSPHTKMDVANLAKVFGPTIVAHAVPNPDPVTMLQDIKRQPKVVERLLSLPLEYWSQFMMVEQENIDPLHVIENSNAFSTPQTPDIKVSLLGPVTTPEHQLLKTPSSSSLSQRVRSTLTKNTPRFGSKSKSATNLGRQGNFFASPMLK

[2] = cytotoxicity toward HCT116 cells – cell-based, CellTiter-Glo luminescence, IC50, dose response (AID 1117332); assay type: functional; conditions: HCT-116
[3] = molecular target: Serine/threonine-protein phosphatase (Homo sapiens, UniProt Q9BPW0); test: PP5 phosphatase inhibitors, dose response, biochemical, fluorescence (AID 2395)
Sequence of Serine/threonine-protein phosphatase (Q9BPW0 whole entry): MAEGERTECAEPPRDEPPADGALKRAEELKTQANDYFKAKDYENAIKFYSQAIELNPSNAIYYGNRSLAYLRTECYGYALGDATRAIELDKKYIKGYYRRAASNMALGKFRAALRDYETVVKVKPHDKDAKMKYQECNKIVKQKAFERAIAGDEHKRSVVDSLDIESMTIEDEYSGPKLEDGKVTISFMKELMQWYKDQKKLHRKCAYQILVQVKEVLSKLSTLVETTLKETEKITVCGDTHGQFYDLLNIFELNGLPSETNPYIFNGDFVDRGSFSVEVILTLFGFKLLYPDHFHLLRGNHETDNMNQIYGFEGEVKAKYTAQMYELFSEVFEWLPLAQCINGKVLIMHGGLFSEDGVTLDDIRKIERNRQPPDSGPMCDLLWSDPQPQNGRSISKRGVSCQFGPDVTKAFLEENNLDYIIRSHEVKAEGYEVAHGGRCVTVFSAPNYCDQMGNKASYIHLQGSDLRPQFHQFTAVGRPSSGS

[4] = molecular target: T3, Sentrin-specific protease 7 (Homo sapiens, UniProt Q9BQF6); assay type: functional;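 also: Luminescence-based dose-response confirmation of ultra-high-throughput screening hits, measuring inhibition of SENP7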
T3 sequence (Q9BQF6 whole entry): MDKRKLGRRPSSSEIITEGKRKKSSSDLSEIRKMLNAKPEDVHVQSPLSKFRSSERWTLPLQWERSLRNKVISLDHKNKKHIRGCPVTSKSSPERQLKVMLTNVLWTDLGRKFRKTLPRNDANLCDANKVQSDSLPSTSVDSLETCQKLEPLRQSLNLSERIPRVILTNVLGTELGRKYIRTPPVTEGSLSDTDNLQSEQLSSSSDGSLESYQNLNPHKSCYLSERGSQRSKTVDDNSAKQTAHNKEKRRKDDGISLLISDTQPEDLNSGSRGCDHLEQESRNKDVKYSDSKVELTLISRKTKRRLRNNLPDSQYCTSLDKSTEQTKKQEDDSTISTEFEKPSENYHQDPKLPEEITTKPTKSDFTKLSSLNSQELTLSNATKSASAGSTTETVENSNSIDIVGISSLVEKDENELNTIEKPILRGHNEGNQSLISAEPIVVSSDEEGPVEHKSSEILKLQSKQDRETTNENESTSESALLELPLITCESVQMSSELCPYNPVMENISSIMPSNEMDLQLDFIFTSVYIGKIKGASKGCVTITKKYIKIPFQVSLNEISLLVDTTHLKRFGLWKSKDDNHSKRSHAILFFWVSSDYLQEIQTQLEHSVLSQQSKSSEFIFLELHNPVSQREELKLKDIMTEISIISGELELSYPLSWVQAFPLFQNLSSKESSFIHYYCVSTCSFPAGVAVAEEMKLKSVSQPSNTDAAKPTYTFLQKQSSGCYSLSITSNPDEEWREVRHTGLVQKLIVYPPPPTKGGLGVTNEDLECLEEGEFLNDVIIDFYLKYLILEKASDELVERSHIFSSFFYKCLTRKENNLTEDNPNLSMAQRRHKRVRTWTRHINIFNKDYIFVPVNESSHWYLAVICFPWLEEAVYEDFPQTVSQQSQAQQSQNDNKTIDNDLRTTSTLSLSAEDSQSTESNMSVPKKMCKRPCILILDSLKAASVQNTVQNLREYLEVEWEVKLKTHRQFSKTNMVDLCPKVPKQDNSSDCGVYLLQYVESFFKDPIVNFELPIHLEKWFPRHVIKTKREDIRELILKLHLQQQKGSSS

SMILES: Cc1cc2nc3ccc(N(C)C)cc3[s+]c2cc1N [TOLONIUM CHLORIDE]
- EC50 (Protein RecA): 28 µM (active)
- IC50 [1]: 32.4 µM (active)
- IC50 [2]: 2.78 µM (active)

SMILES: CCCOc1cc2c(C#N)c(N3CCCC3)nc(N)c2c(N)n1
- IC50 [3]: 9.93 µM (active)
- IC50 [4]: 4.45 µM (active)
